Laboratory results published in US20240115656A1, “Treatment of Constipation-Predominant Irritable Bowel Syndrome” (Ironwood Pharmaceuticals, Inc., priority 2010, published 2024).
Positions of bridges follow the written chain, without caps; N, C: chain ends. Residues, ends and D or L forms follow the SMILES beside them.

How the values were obtained:
[1] = tested on: patients meeting modified Rome II criteria for constipation-predominant irritable bowel syndrome; experiment: Trial 1 (LIN-MD-31): randomized, double-blind, placebo-controlled trial with 12-week treatment period and randomized withdrawal period; format: in vivo, human
Protocol: (§1) Linaclotide capsules from Example 4 were administered in two multicenter, randomized, double-blind, placebo-controlled parallel-group trials.
Trial 1 (LIN-MD-31) was conducted on approximately 800 patients meeting modified Rome II criteria for constipation-predominant irritable bowel syndrome. The trial included a two-week pretreatment baseline period, a 12-week treatment period, and a randomized withdrawal period (see FIG. 1A).
(§2) The Pretreatment Period is defined as the 14 to 21 calendar days immediately before starting the trial during which patients provided information related to their daily bowel habits, daily assessment of the symptom severity (such as, e.g., abdominal pain), constipation severity, and use of other medicines, laxatives, suppositories, and/or enemas. Patients who satisfied the necessary criteria were entered into the Treatment Period.
(§3) In both trials, the Treatment Period began with randomization. In Trial 1, treatment lasted for 12 weeks. In Trial 2, treatment lasted for 26 weeks. Patients were randomized to approximately equal-sized treatment groups consisting of 266 μg linaclotide or a placebo, taken once daily in the morning 30 minutes before breakfast. Patients continued to provide daily assessments such as their daily bowel habit assessments and daily patient symptom severity assessments.
(§4) In both trials, daily assessment data for patients in both treatment groups were compiled to give the following primary, co-primary and secondary treatment efficacy endpoints, which have been defined by United States and European regulatory agencies for the study of the efficacy of IBS-C.
(§5) A patient was classified as a 9/12 Week APC 3+1 Responder if they were a weekly APC 3+1 Responder for ≥9 out of the 12 (i.e., 9/12) weeks of the study.
(§6) A patient was classified as a 9/12 Week CSBM 3+1 Responder if they were a weekly CSBM 3+1 Responder for ≥9/12 weeks.
(§7) A patient was classified as a 9/12 Week Abdominal Pain Responder if they were a weekly Abdominal Pain Responder for ≥9/12 weeks.
(§8) A patient was classified as a 6/12 Week APC+1 Responder if they were a weekly APC+1 Responder for ≥6 out of the 12 (i.e., 6/12) weeks of the study.
(§9) Also compiled from the patient daily data were the following secondary efficacy endpoints: • Change From Baseline (i.e., change from pre-treatment period) in CSBM Frequency Rate (measured as a weekly rate); • Change From Baseline (“CFB”) in SBM Frequency Rate (weekly rate); • Change From Baseline in Stool Consistency (measured on a 7-point BSFS); • Change From Baseline in Severity of Straining (measured on a 5-point scale); • Change From Baseline in Abdominal Pain (measured on a 11-point numerical rating scale and scored 0-10); • Change From Baseline in Abdominal Discomfort (measured on […] numerical rating scale and scored 0-10); • Change From Baseline in Bloating (measured on a 11-point numerical rating scale and scored 0-10); • 6/12 Week CSBM+1 Responder; • 6/12 Week Abdominal Pain Responder; and • Change From Baseline in Percent of Abdominal Pain-free Days (Pain-free is a score of 0 on the 0-10 point scale).
Patients who were randomized to linaclotide in the Treatment Period and completed the 12 weeks of the Treatment Period, the RW Population, were randomized to treatment with linaclotide or placebo in the RW Period as follows: half of the RW Population received placebo for the first half of the RW Period followed by administration of 266 μg linaclotide; one quarter of the RW Population received 266 μg linaclotide for the entire RW Period and the remaining one quarter of the RW Population received 266 μg linaclotide for the first half of the RW Period and placebo for the remainder of the RW Period. Patients that were randomized to placebo in the Treatment Period and completed the 12 weeks of the Treatment Period received 266 μg linaclotide in the RW Period.

[2] = Systemic levels of linaclotide after oral administration; format: in vivo; conditions: after oral administration at therapeutic dose levels
[3] = tested on: chronic constipation (CC); conditions: Phase 2b studies for CC; four-week treatment period; cited from earlier work
[4] = tested on: patients meeting modified Rome II criteria for constipation-predominant irritable bowel syndrome; experiment: Trial 2 (MCP-103-302): randomized, double-blind, placebo-controlled trial with 26-week treatment period; format: in vivo, human
Protocol: as §1
Trial 2 (MCP-103-302) was conducted on approximately 805 patients meeting modified Rome II criteria for constipation-predominant irritable bowel syndrome (<3 CSBM/wk, ≤5 SBM/wk, abdominal pain≥3 on a 0-10 scale.) As in Trial 1, the trial included a two-week pretreatment baseline period; however, the treatment period was continued for 26 weeks rather than 12 weeks as in Trial 1, and no randomized withdrawal period was performed (see FIG. 1B).
as §2, §3, §4, §5, §6, §7, §8
In Trial 2, the above co-primary efficacy parameters, 12-week Abdominal Pain/Abdominal Discomfort Responder and 12-week IBS Degree of Relief Responder, were also computed for the full 26 week treatment period.
as §9

[5] = 266 μg linaclotide group, once daily, 12 weeks
[6] = 266 μg linaclotide group, once daily
[7] = 266 μg linaclotide group, once daily, first 12 weeks
[8] = 26-week treatment period, linaclotide-treated patients
[9] = after 12 weeks, linaclotide-treated patients
[10] = main secondary efficacy endpoint, full 26 week treatment period
[11] = throughout the 26-week treatment period, linaclotide-treated patients

## C[C@@H]1NC(=O)[C@@H]2CCCN2C(=O)[C@H](CC(N)=O)NC(=O)[C@@H]2CSSC[C@H](N)C(=O)N[C@H]3CSSC[C@H](NC1=O)C(=O)N[C@@H]([C@@H](C)O)C(=O)NCC(=O)N[C@H](C(=O)N[C@@H](Cc1ccc(O)cc1)C(=O)O)CSSC[C@H](NC(=O)[C@H](Cc1ccc(O)cc1)NC(=O)[C@H](CCC(=O)O)NC3=O)C(=O)N2 [linaclotide, Cys1 Cys2 Glu3 Tyr4 Cys5 Cys6 Asn7 Pro8 Ala9 Cys10 Thr11 Gly12 Cys13 Tyr14] (H-CCEYCCNPACTGCY-OH; disulfide 1-6, 2-10, 5-13)
[1]; [5]
  6/12-week APC+1 pain responder rate: 33.6%
  6/12-week abdominal pain responder rate: 50.1%
  6/12 week CSBM+1 responder rate: 48.6%
  9/12-week APC 3+1 responder rate: 12.1%
  9/12-week CSBM 3+1 responder rate: 19.5%
  9/12-week abdominal pain responder rate: 34.3%
  12-week Abdominal Pain/Abdominal Discomfort Responder: 54.8%
  12-week IBS Degree of Relief Responder: 37.0%
[1]; Randomized Withdrawal Period
  rebound of IBS-C symptoms following discontinuation of linaclotide treatment: no evidence of rebound of IBS-C symptoms
[1]; co-primary efficacy parameter
  12-week Abdominal Pain/Abdominal Discomfort Responder: Statistical Significance (266 μg vs. Placebo): Yes
  12-week IBS Degree of Relief Responder: Statistical Significance (266 μg vs. Placebo): Yes
[1]; linaclotide group
  adverse event: diarrhea with mild symptoms: 9%
  adverse event: diarrhea with moderate symptoms: 8%
  adverse event: diarrhea with severe symptoms: 2%
  overall rate of discontinuation due to adverse events: 8%
[1]; linaclotide treatment, FIG. 10
  patients reporting at least a 10% improvement in abdominal symptoms over 12 weeks: under 80%
[1]; linaclotide-treated patients
  adverse event: abdominal pain: 5%
  adverse event: diarrhea: 19%
  adverse event: flatulence: 5%
  adverse event: headache: 5%
[1]; on average, 12 weeks, FIG. 12C
  more CSBMs per week than with the placebo alone: about 1.5 CSBMs per week
[1]; on average, sustained throughout the treatment period
  time until abdominal pain was reduced over the pre-treatment baseline: 1 to 3 days
[1]; primary efficacy endpoint
  6/12 Week APC + 1 Responder: Statistical Significance (266 μg vs. Placebo): Yes
  9/12 Week APC 3 + 1 Responder: Statistical Significance (266 μg vs. Placebo): Yes
  9/12 Week Abdominal Pain Responder: Statistical Significance (266 μg vs. Placebo): Yes
  9/12 Week CSBM 3 + 1 Responder: Statistical Significance (266 μg vs. Placebo): Yes
[1]; secondary efficacy endpoint
  6/12 Week Abdominal Pain Responder: Statistical Significance (266 μg vs. Placebo): Yes
  6/12 Week CSBM + 1 Responder: Statistical Significance (266 μg vs. Placebo): Yes
  12-Week Abdominal Discomfort (CFB): Statistical Significance (266 μg vs. Placebo): Yes
  12-Week Abdominal Pain (CFB): Statistical Significance (266 μg vs. Placebo): Yes
  12-Week Bloating (CFB): Statistical Significance (266 μg vs. Placebo): Yes
  12-Week CSBM Frequency Rate(CFB): Statistical Significance (266 μg vs. Placebo): Yes
  12-Week Percent of Abdominal Pain-free Days (CFB): Statistical Significance (266 μg vs. Placebo): Yes
  12-Week SBM Frequency Rate (CFB): Statistical Significance (266 μg vs. Placebo): Yes
  12-Week Severity of Straining (CFB): Statistical Significance (266 μg vs. Placebo): Yes
  12-Week Stool Consistency (CFB): Statistical Significance (266 μg vs. Placebo): Yes
[2]
  levels of linaclotide seen systemically: no detectable levels
[3]
  effect on constipation, abdominal discomfort and bloating: reduced constipation, abdominal discomfort, and bloating
[4]; [6]
  12-week Abdominal Pain/Abdominal Discomfort Responder: 54.1%
  12-week IBS Degree of Relief Responder: 39.4%
[4]; [7]
  6/12-week APC+1 pain responder rate: 33.7%
  9/12-week APC 3+1 responder rate: 12.7%
  9/12-week CSBM 3+1 responder rate: 18.0%
  9/12-week abdominal pain responder rate: 38.9%
[4]; [8]
  overall rate of discontinuation due to adverse events: 10.2%
  patients discontinued due to diarrhea: 4.5%
[4]; after 12 weeks, linaclotide group
  overall rate of discontinuation due to adverse events: 9%
[4]; [9]
  adverse event: abdominal pain: 4%
  adverse event: diarrhea: 18%
  adverse event: flatulence: 3%
  adverse event: headache: 3%
[4]; co-primary efficacy parameter
  12-week Abdominal Pain/Abdominal Discomfort Responder: Statistical Significance (266 μg vs. Placebo): Yes
  12-week IBS Degree of Relief Responder: Statistical Significance (266 μg vs. Placebo): Yes
[4]; [10]
  26-week Abdominal Pain/Abdominal Discomfort Responder: Statistical Significance (266 μg vs. Placebo): Yes
  26-week IBS Degree of Relief Responder: Statistical Significance (266 μg vs. Placebo): Yes
[4]; on average, 12 weeks after treatment, FIG. 12C
  CSBMs per week compared with placebo: more CSBMs per week than with the placebo alone
[4]; on average, sustained throughout the 26 week treatment period
  time until abdominal pain was reduced over the pre-treatment baseline: 1 to 3 days
[4]; primary efficacy endpoint
  6/12 Week APC + 1 Responder: Statistical Significance (266 μg vs. Placebo): Yes
  9/12 Week APC 3 + 1 Responder: Statistical Significance (266 μg vs. Placebo): Yes
  9/12 Week Abdominal Pain Responder: Statistical Significance (266 μg vs. Placebo): Yes
  9/12 Week CSBM 3 + 1 Responder: Statistical Significance (266 μg vs. Placebo): Yes
[4]; secondary efficacy endpoint
  6/12 Week Abdominal Pain Responder: Statistical Significance (266 μg vs. Placebo): Yes
  6/12 Week CSBM + 1 Responder: Statistical Significance (266 μg vs. Placebo): Yes
  12-Week Abdominal Discomfort (CFB): Statistical Significance (266 μg vs. Placebo): Yes
  12-Week Abdominal Pain (CFB): Statistical Significance (266 μg vs. Placebo): Yes
  12-Week Bloating (CFB): Statistical Significance (266 μg vs. Placebo): Yes
  12-Week CSBM Frequency Rate(CFB): Statistical Significance (266 μg vs. Placebo): Yes
  12-Week Percent of Abdominal Pain-free Days (CFB): Statistical Significance (266 μg vs. Placebo): Yes
  12-Week SBM Frequency Rate (CFB): Statistical Significance (266 μg vs. Placebo): Yes
  12-Week Severity of Straining (CFB): Statistical Significance (266 μg vs. Placebo): Yes
  12-Week Stool Consistency (CFB): Statistical Significance (266 μg vs. Placebo): Yes
[4]; [11]
  adverse event: abdominal pain: 4.5%
  adverse event: diarrhea: 19.7%
  adverse event: flatulence: 3.7%
  adverse event: headache: 3.2%
  adverse event: viral gastroenteritis: 3.7%
